Measured values reported in article PMC6644330 (ACS Omega, 2017).
Marks after values point to notes of the source that are not given here.

What was measured:
[1] = 1H NMR method, preliminary account in the Magritek laboratory manual; cited from earlier work
[2] = cited from earlier work
[3] = assay type: physicochemical; conditions: for log KOW (eq 5b): corrected for phase volume ratio vO/vW; for migration from water to octanol (log KOW could not be measured): zwitterions

Row | Compound | log KOW (eq 5b) ([3]; 20–21 °C) | literature log KOW (ref ([9])) [2] | further results
1 | CC(C)=O [acetone] | –0.24 | –0.24 | log KOW (ref ([14])) [1]: –0.23; KOW ([3]; single measurement, eq 4): 0.589; log KOW ([3]; single measurement, eq 4): −0.23
2 | CCC(C)O (stereo not shown) [2-butanol] | 0.65 | 0.61 | –
3 | C1COCCO1 [1,4-dioxane] | –0.31 | –0.27 | –
4 | C[C@H](N)C(=O)O [alanine] | – | – | migration from water to octanol (log KOW could not be measured) [3]: did not migrate to any detectable extent
5 | CC#N [acetonitrile] | –0.28 | –0.34 | log KOW (ref ([14])) [1]: –0.51
6 | CCC(C)=O [butanone] | 0.33 | 0.29 | –
7 | NCC(=O)O [glycine] | – | – | migration from water to octanol (log KOW could not be measured) [3]: did not migrate to any detectable extent
8 | CC(C)CO [2-methylpropanol-1] | 0.89 | 0.76 | –

The next lines start with results.

Row | log KOW (eq 5b) ([3]; 20–21 °C) | Compound | literature log KOW (ref ([9])) [2] | further results
9 | 0.44 | C1CCOC1 [tetrahydrofuran] | 0.46 | log KOW (ref ([14])) [1]: 0.43
10 | –1.03 | CN(C)C=O [dimethylformamide] | – | –
11 | –1.87 | C[S+](C)[O-] [dimethyl sulfoxide] | –1.35 | literature log KOW [2]: −2.03 (ref ([1]))
12 | –0.75 | CO [methanol] | –0.77 | log KOW (eq 5b), corrected for OH ([3]; 20–21 °C, corrected for phase volume ratio and for OH): −0.71 ^c; log KOW ± SD (eq 4, this work), corrected for OH ([3]; 20–21 °C, n = 5, equal phase volumes assumed, corrected for OH): –0.72 ^c ± 0.016 (n = 5); correction of log KOW for alcohol OH protons ([3]; increase of log KOW): 0.04
13 | 0.19 | COC(C)=O [methyl acetate] | 0.18 | –
14 | 0.88 | CCOC(C)=O [ethyl acetate] | 0.73 | –
